Results from patent US12258304B2, “Compounds and methods for treatment of bacterial infections” (Albert Einstein College of Medicine, priority 2019, dated 2025).
“Also recorded” adds a separate entry of the source.

How the values were obtained:
[1] = biological target: T1, PhMqnE (MqnE from Pedobacter heparinus) (Pedobacter heparinus, UniProt C6XW09); assay: PhMqnE competition / inhibition assay (AF formation); assay type: biochemical
Protocol: (§1) FIGS. 2(a), 2(b) and 2(c) illustrate inhibition studies of MqnE. […] Assays contained 0.5 μM of PhMqnE, 1 mM SAM, 1 mM DHC, and 2-FDHC varied from 5 μM to 2 mM.
(§2) The mqnE gene from Pedobacter heparinus (PhMqnE) was coexpressed together with the pPH151 plasmid, which contains the suf operon from E. coli under the control of a T7 promoter, to promote proper FeS cluster assembly in PhMqnE. […] It was surmised that positioning fluorine atoms around the aromatic ring of DHC would stabilize the captodative radical intermediate 1 by preventing it from converting to intermediate 2 in FIG. 1(a), thereby acting as a mechanism-based inhibitor and trapping the enzyme in an intermediate state. DHC analogues were synthesized with fluorine at the 2, 4, 5, and 2,4 positions of DHC (FIG. 1 (b)).

[2] = biological target: T1, PhMqnE (MqnE from Pedobacter heparinus); assay: PhMqnE substrate kinetics / turnover of DHC analogues; assay type: biochemical
Protocol: as §1, §2

Helicobacter pylori (Hp) = assay: Hp growth inhibition in liquid culture (OD600); assay type: cell-based
Protocol: Inhibition was determined by measuring the OD600 of liquid cultures incubated at 37° C. for 48 hours.
(§3) Hp grows under microanaerobic conditions in the human gut, where over population can lead to ulcers and cancer. Based on the K results described above, the effects of 2F-DHC were examined on the growth of Hp in BHI medium supplemented with 10% fetal bovine serum and Hp selective supplement (DENT supplement) in 96-well plate format. Growth of Hp was detected by measuring the optical density of the media at 600 nm after 72 hr of growth at 37° C. […] To determine if 2F-DHC inhibits Hp growth by specifically blocking the action of MqnE in the futalosine pathway, it was tested whether the product of MqnE, AF, could rescue Hp growth in the presence of 2F-DHC.

Escherichia coli = assay: E. coli growth in minimal media (OD600); assay type: cell-based; details: 1 μL of 100 mM 2F-DHC in 100 μL minimal media, OD600 at 2, 3 and 4 hr
Excerpt: (§4) FIGS. 4(a) and 4(b) illustrate E. coli and HEK293T cell growth in the presence of 2F-DHC.
as §3
(§5) As shown in FIG. 4(a), an overnight culture of E. coli was diluted 1:25 into 100 μL of minimal media with either 1 μL of DMSO (no DHC control) or 1 μL of 100 mM 2F-DHC in DMSO in a 96-well plate. The plate was shaken at 37° C. and monitored for at 2, 3, and 4 hr post inoculation by measuring the OD600. […] Cell growth and viability were measured with an automated cell counter after staining with tryptan blue (Countess, Life Technologies).

HEK293T cells = assay: HEK293T cell growth and viability; assay type: cell-based, human; details: 1 mM 2F-DHC, 24 and 48 hr culture
Protocol: as §4, §5

[3] = substrate: C=C(Oc1cccc(C(=O)O)c1)C(=O)O; assay: PhMqnE substrate kinetics / turnover of DHC analogues; assay type: biochemical, Pedobacter heparinus; details: other: purified PhMqnE, dithionite (DT) as electron source
[4] = media supplemented with 1 mM AF, 48 hr

C=C(Oc1cccc(C(=O)O)c1F)C(=O)O [2F-DHC]
inhibition of AF production ([1]; 250 μM inhibitor, 0.5 μM PhMqnE, 1 mM SAM, 1 mM DHC): almost completely inhibited | rate of AF formation in the presence of inhibitor ([1]; competition assay, 2 mM DHC + 2 mM analogue, 3.5 min^−1 without analogues): 0.2 min⁻¹ | Ki ([1]; fit to non-linear competitive inhibition equation, 0.5 μM PhMqnE, 1 mM SAM, 1 mM DHC): ~2000 nM | fold slower product formation than with DHC as substrate ([2]; 2 mM SAM and 2 mM 2F-DHC): ~10 fold | rate of conversion to fluorinated AF product ([2]; 2 mM SAM and 2 mM analogue as sole substrate): 0.41 min⁻¹ | IC90 (Helicobacter pylori (Hp); Helicobacter pylori, 72 hr, read-out: minimal inhibitory concentration that restricts >90% of the growth (IC90)): < 23 µg/mL | IC50 (Helicobacter pylori (Hp); Helicobacter pylori, BHI medium, 10% FBS, OD600 after 72 hr at 37° C.): 31.8 ± 2.5 µM | inhibition at 30 µM (Helicobacter pylori (Hp); Helicobacter pylori, at ˜30 μM (6 pg/mL), 72 hr): ~50% | growth of Hp (Helicobacter pylori (Hp); at 1 mM, 48 hr): completely inhibits growth; also recorded: fully inhibited | growth of Hp (Helicobacter pylori (Hp); at, 72 hr): completely inhibited | effect on growth of E. coli (Escherichia coli): no effect; also recorded: No difference in growth is observed | effect on HEK293T cell growth and viability (HEK293T cells): No difference in growth is observed

Nc1ncnc2c1ncn2[C@@H]1O[C@H](CCC(=O)c2cccc(C(=O)O)c2)[C@@H](O)[C@H]1O [AF, aminofutalosine, reference compound]
OD600 of Hp culture in the presence of 1 mM 2F-DHC (Helicobacter pylori (Hp); [4]): ~0.28 | rescue of Hp growth in the presence of 1 mM 2F-DHC (Helicobacter pylori (Hp); [4]): fully restored; also recorded: can restore growth

C[S+](CC[C@H](N)C(=O)[O-])C[C@H]1O[C@@H](n2cnc3c(N)ncnc32)[C@H](O)[C@@H]1O (stereo partly drawn) [SAM, S-adenosyl-L-methionine, reference compound]
Km ([2]; purified PhMqnE, dithionite (DT) as electron source): 21 µM

B1: PhMqnE (MqnE from Pedobacter heparinus) (Pedobacter heparinus DSM 2366) (protein)
chain: MDTTSKLALILADADLPAALKAIALKVQNQERITFDEGVYLYENAELGYLGVLANYIREQKHGDNTYFNRNFHIEPTNVCVYDCKFCSYSRLIKQKEEGWEMSVDGMMEVLKKYDHEPVTEVHITGGVVPKQNLEFYSDFFRRAKAHRPELHIKALTPVEYYYIFKKAKLSHYDGMKYMQEAGLDSMPGGGAEIFHPEVREKIAHDKCNAEQWLDIHEQAHKLGMKTNATMLYGHIEQFWHRVDHMERLRRQQDKTGGFQAFIPLKFRNQHNQMDHVPEVSVIEDLRNYAIARIYMDNFDHIKAYWAMISRQTAQLSLNFGVDDIDGTLDDTTKIYSMAGAEEQHPAMSTRDLVDLIKQVKRKPIERDTLYNVVTDYSQVTFEDEVKPQYYKLPVIN
Km [3]: 72 µM
